Data from patent US6372747B1, “Farnesyl protein transferase inhibitors” (Schering Corporation, priority 1998, dated 2002).

system: COS Cell; test: COS Cell IC50 (Cell-Based Assay); conditions: range stated for the group
Protocol: FPT IC50 (inhibition of farnesyl protein transferase, in vitro enzyme assay) and COS Cell IC50 (Cell-Based Assay) were determined following the assay procedures described in WO 95/10516, published Apr. 20, 1995. GGPT IC50 (inhibition of geranylgeranyl protein transferase, in vitro enzyme assay), Cell Mat Assay, and anti-tumor activity (in vivo anti-tumor studies) could be determined by the assay procedures described in WO 95/10516. The disclosure of WO 95/10516 is incorporated herein by reference thereto.

| Compound | IC50 [nM] |
| --- | --- |
| CC(C)(CCNC(=O)[C@H]1CN(C2c3ccc(Cl)cc3CCc3cc(Br)cnc32)CCN1C(=O)NC1CCCCC1)n1ccnc1 (some centres unmarked) [Example 1] | 10 to 920 |
| CC(C)(CCNC(=O)[C@H]1CN([C@H]2c3ccc(Cl)cc3CCc3cc(Br)cnc32)CCN1C(=O)CC1CCN(C(N)=O)CC1)n1ccnc1 [Example 8] | 10 to 920 |
| NC(=O)[C@H](Cc1cnc[nH]1)NC(=O)[C@H]1CN(C2c3ccc(Cl)cc3CCc3cc(Br)cnc32)CCN1C(=O)NC1CCCCC1 (some centres unmarked) [Example 25] | 10 to 920 |
| Cn1cncc1CCCNC(=O)[C@H]1CN(C2c3ccc(Cl)cc3CCc3cc(Br)cnc32)CCN1C(=O)NC1CCCCC1 (some centres unmarked) [Example 101] | ≤ 35 |
| CC(C)(C)NC(=O)N1CCN(C2c3ccc(Cl)cc3CCc3cc(Br)cnc32)C[C@@H]1C(=O)NCCCn1ccnc1N (some centres unmarked) [Example 103] | ≤ 35 |
| Cc1cn(CCNC(=O)[C@H]2CN(C3c4ccc(Cl)cc4CCc4cc(Br)cnc43)CCN2C(=O)NC2CCCCC2)cn1 (some centres unmarked) [Example 259] | ≤ 35 |

system: Human tumor cells; test: Soft Agar Assay (anchorage-independent growth); type: cell-based; conditions: Homo sapiens, range stated for the group unless single
Protocol: Anchorage-independent growth is a characteristic of tumorigenic cell lines. Human tumor cells can be suspended in growth medium containing 0.3% agarose and an indicated concentration of a farnesyl transferase inhibitor. The solution can be overlayed onto growth medium solidified with 0.6% agarose containing the same concentration of farnesyl transferase inhibitor as the top layer. After the top layer is solidified, plates can be incubated for 10-16 days at 37° C. under 5% CO2 to allow colony outgrowth. After incubation, the colonies can be stained by overlaying the agar with a solution of MTT (3-[4,5-dimethyl-thiazol-2-yl]-2,5-diphenyltetrazolium bromide, Thiazolyl blue) (1 mg/mL in PBS). Colonies can be counted and the IC50's can be determined.

| IC50 [nM] | Compound |
| --- | --- |
| 2 to 300 | O=C(C1CC([C@H]2c3ccc(Cl)cc3CCc3cc(Br)cnc32)CCN1C(=O)NC1CCCCC1)N(CCCn1ccnc1)Cc1ccccc1 (single isomer, unassigned) [Example 79 Step B (Isomer A)] |
| 2 to 10 | Cc1cn(CCCN(Cc2ccccc2O)C(=O)[C@H]2CN([C@H]3c4ccc(Cl)cc4CCc4cccnc43)CCN2C(=O)OC2CCCCC2)cn1 (single isomer, unassigned) [Example 316] |
| 2 to 10 | Cc1cn(CCCN(Cc2ccccc2)C(=O)[C@@H]2CN([C@H]3c4ccc(Cl)cc4CCc4cccnc43)CCN2C(=O)OC2CCCCC2)cn1 (single isomer, unassigned) [Example 321] |
| 2 to 10 | Cc1cn(CCCN(Cc2ccccc2Cl)C(=O)[C@H]2CN([C@H]3c4ccc(Cl)cc4CCc4cccnc43)CCN2C(=O)OC2CCCCC2)cn1 (single isomer, unassigned) [Example 324] |
| 2 to 10 | Cc1cncn1CCCN(Cc1ccccc1)C(=O)[C@H]1CN([C@H]2c3ccc(Cl)cc3CCc3cccnc32)CCN1C(=O)OC1CCCCC1 (single isomer, unassigned) [Example 325] |
| 2 to 10 | Cc1cn(CCCN(Cc2ccccc2)C(=O)[C@H]2CN(C3c4ccccc4CCc4cccnc43)CCN2C(=O)OC2CCCCC2)cn1 (single isomer, unassigned) [Example 372] |
| 2 to 10 | Cc1cn(CCCN(Cc2ccccc2)C(=O)[C@H]2CN(C3c4ccc(Cl)cc4CCc4cc(Br)cnc43)CCN2C(=O)OC2CCCCC2)c(C)n1 (single isomer, unassigned) [Example 375] |
| 2 to 10 | Cc1nccn1CCCN(Cc1ccccc1)C(=O)[C@H]1CN(C2c3ccc(Cl)cc3CCc3cc(Br)cnc32)CCN1C(=O)OC1CCCCC1 (single isomer, unassigned) [Example 382] |
| 2 to 10 | Cn1cncc1CCN(CC1CC1)C(=O)[C@H]1CN([C@H]2c3ccc(Cl)cc3CCc3cc(Br)cnc32)CCN1C(=O)OC(C)(C)C [305 (11s,2R isomer)] |
| 2 to 300 | CC(C)(C)NC(=O)N1CCN([C@@H]2c3ccc(Cl)cc3CCc3cc(Br)cnc32)C[C@@H]1C(=O)NCCC(C)(C)n1ccnc1 [Example 11] |
| 2 to 300 | CC(C)OC(=O)N1CCN([C@H]2c3ccc(Cl)cc3CCc3cc(Br)cnc32)C[C@@H]1C(=O)NCCC(C)(C)n1ccnc1 [Example 16] |
| 2 to 300 | CC(C)(C)OC(=O)N1CCC(C2c3ccc(Cl)cc3CCc3cc(Br)cnc32)CC1C(=O)N(CCCn1ccnc1)Cc1ccccc1 (centres unmarked) [Example 88] |
| 2 to 10 | CC(C)(C)OC(=O)N1CCN(C2c3ccc(Cl)cc3CCc3cc(Br)cnc32)C[C@@H]1C(=O)N(CCCn1ccnc1)Cc1ccncc1 (some centres unmarked) [Example 116] |
| 2 to 10 | CC(C)(C)OC(=O)N1CCN(C2c3ccc(Cl)cc3CCc3cc(Br)cnc32)C[C@@H]1C(=O)N(CCCn1ccnc1)Cc1cccnc1 (some centres unmarked) [Example 117] |
| 2 to 10 | CC(C)(C)OC(=O)N1CCN([C@@H]2c3ccc(Cl)cc3CCc3cc(Br)cnc32)C[C@@H]1C(=O)N(CCCn1ccnc1)Cc1ccccc1 [Example 160] |
| 2 to 10 | O=C([C@H]1CN([C@H]2c3ccc(Cl)cc3CCc3cc(Br)cnc32)CCN1C(=O)OC1CCCCC1)N(CCCn1ccnc1)Cc1ccccc1 [Example 170] |
| 2 to 10 | CC(C)COC(=O)N1CCN([C@@H]2c3ccc(Cl)cc3CCc3cc(Br)cnc32)C[C@@H]1C(=O)N(CCCn1ccnc1)Cc1ccccc1 [Example 184] |
| 2 to 10 | O=C([C@H]1CN([C@H]2c3ccc(Cl)cc3CCc3cccnc32)CCN1C(=O)OC1CCCCC1)N(CCCn1ccnc1)Cc1ccccc1 [Example 186] |

| IC50 [nM] | Compound |
| --- | --- |
| 2 to 10 | CC(C)OC(=O)N1CCN([C@@H]2c3ccc(Cl)cc3CCc3cccnc32)C[C@@H]1C(=O)N(CCCn1ccnc1)Cc1ccccc1 [Example 187] |
| 2 to 10 | O=C([C@H]1CN([C@@H]2c3ccc(Cl)cc3CCc3cccnc32)CCN1C(=O)OC1CCCCC1)N(CCCn1ccnc1)Cc1ccccc1 [Example 188] |
| 2 to 10 | Cc1cn(CCCN(Cc2ccccc2)C(=O)[C@H]2CN([C@@H]3c4ccc(Cl)cc4CCc4cc(Br)cnc43)CCN2C(=O)OC(C)C)cn1 [Example 196] |
| 2 to 10 | Cc1cn(CCCN(Cc2ccccc2)C(=O)[C@H]2CN([C@@H]3c4ccc(Cl)cc4CCc4cc(Br)cnc43)CCN2C(=O)OC2CCCCC2)cn1 [Example 197] |
| 2 to 10 | Cc1cn(CCCN(Cc2ccccc2)C(=O)[C@H]2CN([C@@H]3c4ccc(Cl)cc4CCc4cccnc43)CCN2C(=O)OC2CCCCC2)cn1 [Example 198] |
| 2 to 10 | Cc1cn(CCCN(Cc2ccccc2)C(=O)[C@H]2CN([C@H]3c4ccc(Cl)cc4CCc4cccnc43)CCN2C(=O)OC(C)C)cn1 [Example 200] |
| 2 to 10 | Cc1cn(CCCN(Cc2ccccc2)C(=O)[C@H]2CN([C@@H]3c4ccc(Cl)cc4CCc4cccnc43)CCN2C(=O)OC2CCCC2)cn1 [Example 202] |
| 2 to 10 | CC(C)OC(=O)N1CCN([C@H]2c3ccc(Cl)cc3CCc3cccnc32)C[C@@H]1C(=O)N(CCCn1ccnc1)Cc1ccc(F)cc1 [Example 204] |
| 2 to 10 | CC(C)(C)OC(=O)N1CCN([C@H]2c3ccc(Cl)cc3CCc3cc(Br)cnc32)C[C@@H]1C(=O)N(CCCn1ccnc1)Cc1cccnc1 [Example 206] |
| 2 to 10 | CC(C)(C)OC(=O)N1CCN([C@@H]2c3ccc(Cl)cc3CCc3cc(Br)cnc32)C[C@@H]1C(=O)N(CCCn1ccnc1)Cc1cccnc1 [Example 207] |
| 2 to 10 | O=C([C@H]1CN([C@H]2c3ccc(Cl)cc3CCc3cccnc32)CCN1C(=O)OC1CCCCC1)N(CCCn1ccnc1CO)Cc1ccccc1 [Example 208] |
| 2 to 10 | CC(C)(C)OC(=O)N1CCN(C2c3ccc(Cl)cc3CCc3cc(Br)cnc32)C[C@@H]1C(=O)N(CCCn1ccnc1)Cc1ccccn1 (some centres unmarked) [Example 217] |
| 2 to 10 | Cc1cn(CCCN(Cc2ccccc2)C(=O)[C@H]2CN([C@H]3c4ccc(Cl)cc4CCc4cccnc43)CCN2C(=O)OC2CCCCC2)cn1 [Example 225] |
| 2 to 10 | Cc1cn(CCCN(Cc2cccc(Cl)c2)C(=O)[C@H]2CN([C@H]3c4ccc(Cl)cc4CCc4cccnc43)CCN2C(=O)OC2CCCCC2)cn1 [Example 322] |
| 2 to 10 | Cn1cncc1CCCN(Cc1ccccc1)C(=O)[C@H]1CN([C@H]2c3ccc(Cl)cc3CCc3cccnc32)CCN1C(=O)OC1CCCCC1 [Example 335] |
| 2 to 10 | Cc1cn(CC(O)(CNC(=O)[C@H]2CN(C3c4ccc(Cl)cc4CCc4cccnc43)CCN2C(=O)OC2CCCCC2)c2ccccc2)cn1 (some centres unmarked) [Example 339] |
| 2 to 10 | Cc1ncc(CCN(CC2CC2)C(=O)[C@H]2CN([C@H]3c4ccc(Cl)cc4CCc4cccnc43)CCN2C(=O)OC(C)(C)C)n1C [Example 365] |

same assay, conditions: range stated for the group unless single

| IC50 [nM] | Compound |
| --- | --- |
| 2 | Cc1cn(CCCN(Cc2ccccc2)C(=O)[C@H]2CN([C@H]3c4ccc(Cl)cc4CCc4cccnc43)CCN2C(=O)OC2CCCCC2)cn1 [Example 225] |

system: not given; test: not given; conditions: not given

| melting point [°C] | Compound |
| --- | --- |
| 142 to 144 | CC(C)(CCNC(=O)[C@H]1CN(C2c3ccc(Cl)cc3CCc3cc(Br)cnc32)CCN1C(=O)NC1CCCCC1)n1ccnc1 (some centres unmarked) [Example 1] |
| 123 to 127 | CC(C)(CCNC(=O)[C@H]1CN([C@H]2c3ccc(Cl)cc3CCc3cc(Br)cnc32)CCN1C(=O)CC1CCN(C(N)=O)CC1)n1ccnc1 [Example 8] |
| 157 to 159 | CC(C)(C)NC(=O)N1CCN([C@@H]2c3ccc(Cl)cc3CCc3cc(Br)cnc32)C[C@@H]1C(=O)NCCC(C)(C)n1ccnc1 [Example 11] |
| 109 to 111 | CC(C)OC(=O)N1CCN([C@H]2c3ccc(Cl)cc3CCc3cc(Br)cnc32)C[C@@H]1C(=O)NCCC(C)(C)n1ccnc1 [Example 16] |
| 164 to 169 | NC(=O)[C@H](Cc1cnc[nH]1)NC(=O)[C@H]1CN(C2c3ccc(Cl)cc3CCc3cc(Br)cnc32)CCN1C(=O)NC1CCCCC1 (some centres unmarked) [Example 25] |
